Data from patent US20250092030A1, “ENHANCERS OF PARTICULATE GUANYLYL CYCLASE RECEPTOR A” (Mayo Foundation for Medical Education and Research, priority 2023, published 2025).
Values joined by “and” are separate entries in the source; they are usually repeats but may differ in a detail not shown here. Equal entries are not always repeated.

biological target: T1, particulate guanylyl cyclase receptor A (pGC-A) (Homo sapiens, UniProt P16066); experiment: cGMP production by HTRF in HEK293 cells overexpressing pGC-A, with ANP; assay type: cell-based; settings: HEK293, HEK293 cells overexpressing pGC-A; cGMP normalized to maximal amount produced by an EC80 concentration of ANP; read-out: Max efficacy
T1 construct: expressed in transfected cells; host or cells: HEK293
T1 sequence (P16066 33-1061): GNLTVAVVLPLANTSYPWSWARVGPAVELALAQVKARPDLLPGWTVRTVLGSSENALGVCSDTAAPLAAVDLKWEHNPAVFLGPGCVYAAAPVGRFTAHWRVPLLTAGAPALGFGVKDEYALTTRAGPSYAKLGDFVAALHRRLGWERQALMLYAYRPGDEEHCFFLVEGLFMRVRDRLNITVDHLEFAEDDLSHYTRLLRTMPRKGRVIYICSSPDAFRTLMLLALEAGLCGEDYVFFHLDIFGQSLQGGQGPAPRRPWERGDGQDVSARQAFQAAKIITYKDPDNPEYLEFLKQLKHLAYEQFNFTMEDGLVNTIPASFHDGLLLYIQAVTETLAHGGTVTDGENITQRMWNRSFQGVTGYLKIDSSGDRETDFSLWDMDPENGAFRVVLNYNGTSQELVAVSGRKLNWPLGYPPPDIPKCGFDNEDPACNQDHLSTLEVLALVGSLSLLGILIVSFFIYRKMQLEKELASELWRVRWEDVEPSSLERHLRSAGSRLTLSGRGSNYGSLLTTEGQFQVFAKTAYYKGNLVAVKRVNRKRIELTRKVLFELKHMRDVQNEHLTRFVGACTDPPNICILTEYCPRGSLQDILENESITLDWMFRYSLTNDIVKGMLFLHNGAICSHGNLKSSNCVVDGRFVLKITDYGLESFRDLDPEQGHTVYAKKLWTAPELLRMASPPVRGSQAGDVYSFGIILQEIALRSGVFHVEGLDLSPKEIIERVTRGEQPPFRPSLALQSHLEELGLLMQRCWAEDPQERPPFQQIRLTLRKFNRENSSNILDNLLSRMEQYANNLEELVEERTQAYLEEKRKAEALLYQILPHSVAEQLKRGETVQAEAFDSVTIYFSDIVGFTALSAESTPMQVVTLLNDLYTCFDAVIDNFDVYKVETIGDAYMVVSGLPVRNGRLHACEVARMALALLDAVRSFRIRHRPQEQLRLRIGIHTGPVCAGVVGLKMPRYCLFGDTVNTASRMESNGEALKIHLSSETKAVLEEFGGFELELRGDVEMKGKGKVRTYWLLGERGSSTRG
T1 sequence (P01160 124-151 partner limits assumed): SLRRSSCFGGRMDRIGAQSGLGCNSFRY
Description: Assay: Generally, the assay monitors the production of cGMP, the second messenger generated by pGC-A, by Time-Resolved Florescence (HTRF) in HEK293 cells overexpressing the pGC-A. pGC-A suspension cells were stimulated in the presence of the test compound and an EC20 concentration of ANP. The quantity of cGMP was detected by competitive immunoassay using Eu^3+ cryptate-labeled anti-cGMP and d2-labeled cGMP and normalized to maximal amount produced by an EC80 concentration of ANP. Compound EC50 values were determined in the primary assay, in the presence or absence of ANP, to determine mode of action as positive modulators and tested for selectivity in the same assay platform but in HEK cells overexpressing the particulate guanylyl cyclase B receptor (pGC-B), of which CNP is the endogenous ligand.
Assay details: 20 nL of 10 μM test compound in DMSO was added to columns 5-48 of 1536 well white high base screening plates (Corning, New York, NY) cells using 550 ECHO acoustic dispenser (Labcyte, San Jose, CA). Alpha-atrial natriuretic peptide (ANP) (Phoenix Pharmaceutics) was prepared as stock aliquots at 5 μM in PBS with 0.1% BSA. An approximate […] concentration of ANP ([…]) in assay buffer (HBSS containing 5 mM HEPES and 0.05% BSA) was added to columns 3-48 at a volume of 1 μL. Assay buffer only was added to column 1 and assay buffer containing a saturating concentration of ANP (5 nM) was added to column 2. HEK293 cells overexpressing GC-A were resuspended in assay media (OptimMem media containing 2% Heat-inactivated Fetal bovine serum and L-glutamine) at a density of 6×10^5 cells/mL and 2 μL were plated in screening plates (1200 cells/well) in suspension using a Bioraptr 2. Plates were spun at 1000 rpm for 1 min and incubated for 30 min at room temperature. 1.5 μL d2-labeled cGMP followed by 1.5 μL Eu^3+ cryptate-labeled anti-cGMP cGMP detection kit (CiBio; #62GM2PEC) prepared according to manufacturer's protocol were added to all wells using a Bioraptr 2 and TR-FRET signal was detected on an EnVision detector (PerkinElmer). Wells treated with 0.3% DMSO only serve as blank controls (column 1); wells treated with 0.3% DMSO and 5 nM ANP (columns 2) serve as positive controls and wells treated with 0.3% DMSO and […] ANP (columns 3-4) serve as negative controls.

Row | Emax | Compound
1 | 87% | O=C(Nc1nc2c(F)cc(F)cc2s1)C1CCCN(c2ccncc2)C1 (centres unmarked) [compound 081]
2 | 72% | O=C(Nc1nc2c(F)cc(F)cc2[nH]1)C1CCCNC1 (centres unmarked) [249b]
3 | 86% | N[C@@H]1CCC[C@@H](C(=O)Nc2nc3c(F)cc(F)cc3s2)C1 [210T]
4 | 86% | COCCN1CCC(N2CCCC(C(=O)Nc3nc4c(F)cc(F)cc4s3)C2)C1 (centres unmarked) [compound 093]
5 | 70% | O=C(Nc1nc2c(Cl)cc(F)cc2s1)C1CCCN(c2ccncc2)C1 (centres unmarked) [compound 104]
6 | 82% | CN(C)CCN1CCCC(C(=O)Nc2nc3cccc(Cl)c3s2)C1 (centres unmarked) [compound 033]
7 | 62% | CCN(C)C(=O)N1CCCC(C(=O)Nc2nc3c(F)cc(F)cc3s2)C1 (centres unmarked) [compound 274]
8 | 85% | CN1CCC(N2CCCC(C(=O)Nc3nc4c(F)cc(F)cc4s3)C2)C1 (centres unmarked) [compound 090]
9 | 60% | CN(C)CCN1CCCC(C(=O)Nc2nc3c(Cl)c(Cl)ccc3s2)C1 (centres unmarked) [compound 250]
10 | 79% | COC(=O)CN1CC(N2CCCC(C(=O)Nc3nc4c(Cl)cc(F)cc4s3)C2)C1 (centres unmarked) [compound 139]
11 | 96% | CN(C)CCN1CCCCC1C(=O)Nc1nc2c(F)cc(F)cc2s1 (centres unmarked) [compound 037]
12 | 92% | CN(C)CCN1CCCC1C(=O)Nc1nc2c(F)cc(F)cc2s1 (centres unmarked) [compound 053]
13 | 105% | CN(C)CC(=O)N1CCCC(C(=O)Nc2nc3c(F)cc(F)cc3s2)C1 (centres unmarked) [compound 230]
14 | 85% | NCCN1CCCC(C(=O)Nc2nc3c(F)cc(F)cc3s2)C1 (centres unmarked) [compound 236]
15 | 101% | COc1cc(N2CCCC(C(=O)Nc3nc4c(F)cc(F)cc4s3)C2)ccn1 (centres unmarked) [compound 107]
16 | 65% | Cc1cncnc1N1CCCC(C(=O)Nc2nc3c(F)cc(F)cc3s2)C1 (centres unmarked) [compound 111]
17 | 99% | Cc1cccc2nc(NC(=O)C3CCCN(CCN(C)C)C3)sc12 (centres unmarked) [compound 034]
18 | 41% | CN(C)CCN1CCCC(C(=O)Nc2nc3c(C#N)cccc3s2)C1 (centres unmarked) [compound 007]
19 | 92% | N[C@H]1CCCC(C(=O)Nc2nc3c(F)cc(F)cc3s2)C1 (some centres unmarked) [210C]
20 | 94% | CN(C)CCN1CCCC(C(=O)Nc2nc3ccc(Cl)cc3s2)C1 (centres unmarked) [compound 016]
21 | 93% | CN(C)CCN1CCC(C(=O)Nc2nc3c(F)cc(F)cc3s2)CC1 [compound 227]
22 | 84% | O=C(Nc1nc2c(Br)cccc2s1)C1CCCN(C2CCNC2)C1 (centres unmarked) [compound 101]
23 | 88% | Nc1cc(N2CCCC(C(=O)Nc3nc4c(F)cc(F)cc4s3)C2)ccn1 (centres unmarked) [compound 108]
24 | 85% | CCN1CC(N2CCCC(C(=O)Nc3nc4c(Cl)cc(F)cc4s3)C2)C1 (centres unmarked) [compound 135]
25 | 89% | C=CCN1CCC(N2CCCC(C(=O)Nc3nc4c(F)cc(F)cc4s3)C2)C1 (centres unmarked) [compound 092]
26 | 94% | O=C(Nc1nc2c(F)cc(F)cc2s1)C1CCCN(CCN2CCOCC2)C1 (centres unmarked) [compound 244]

same assay, conditions: HEK293 cells overexpressing pGC-A; cGMP normalized to maximal amount produced by an EC80 concentration of ANP

Row | Max efficacy | Compound
27 | 87, 87, 87% | O=C(Nc1nc2c(F)cc(F)cc2s1)C1CCCN(c2ccncc2)C1 (centres unmarked) [compound 081]
28 | 63% | CN(C)CCN1CCCC(C(=O)Nc2nc3cccc(Cl)c3s2)C1 (centres unmarked) [compound 033]
29 | 72% | CCN(C)C(=O)N1CCCC(C(=O)Nc2nc3c(F)cc(F)cc3s2)C1 (centres unmarked) [compound 274]
30 | 69% | CN1CCC(N2CCCC(C(=O)Nc3nc4c(F)cc(F)cc4s3)C2)C1 (centres unmarked) [compound 090]

same assay, conditions: HEK293 cells overexpressing pGC-A; test compound plus EC20 concentration of ANP; cGMP by HTRF

Row | EC50 | Compound
31 | 100 nM and 70 nM and 300 nM | O=C(Nc1nc2c(F)cc(F)cc2s1)C1CCCN(c2ccncc2)C1 (centres unmarked) [compound 081]
32 | 500 nM | N[C@@H]1CCC[C@@H](C(=O)Nc2nc3c(F)cc(F)cc3s2)C1 [210T]
33 | 90 nM | COCCN1CCC(N2CCCC(C(=O)Nc3nc4c(F)cc(F)cc4s3)C2)C1 (centres unmarked) [compound 093]
34 | 280 nM | O=C(Nc1nc2c(Cl)cc(F)cc2s1)C1CCCN(c2ccncc2)C1 (centres unmarked) [compound 104]
35 | 2200 nM and 1200 nM | CN(C)CCN1CCCC(C(=O)Nc2nc3cccc(Cl)c3s2)C1 (centres unmarked) [compound 033]
36 | 3600 nM and 1200 nM | CCN(C)C(=O)N1CCCC(C(=O)Nc2nc3c(F)cc(F)cc3s2)C1 (centres unmarked) [compound 274]
37 | 160 nM and 70 nM | CN1CCC(N2CCCC(C(=O)Nc3nc4c(F)cc(F)cc4s3)C2)C1 (centres unmarked) [compound 090]
38 | 1400 nM | CN(C)CCN1CCCC(C(=O)Nc2nc3c(Cl)c(Cl)ccc3s2)C1 (centres unmarked) [compound 250]
39 | 200 nM | COC(=O)CN1CC(N2CCCC(C(=O)Nc3nc4c(Cl)cc(F)cc4s3)C2)C1 (centres unmarked) [compound 139]
40 | 800 nM | CN(C)CCN1CCCC1C(=O)Nc1nc2c(F)cc(F)cc2s1 (centres unmarked) [compound 053]
41 | 700 nM | CN(C)CC(=O)N1CCCC(C(=O)Nc2nc3c(F)cc(F)cc3s2)C1 (centres unmarked) [compound 230]
42 | 700 nM | NCCN1CCCC(C(=O)Nc2nc3c(F)cc(F)cc3s2)C1 (centres unmarked) [compound 236]
43 | 2100 nM | COc1cc(N2CCCC(C(=O)Nc3nc4c(F)cc(F)cc4s3)C2)ccn1 (centres unmarked) [compound 107]
44 | 400 nM | Cc1cncnc1N1CCCC(C(=O)Nc2nc3c(F)cc(F)cc3s2)C1 (centres unmarked) [compound 111]
45 | 5900 nM | Cc1cccc2nc(NC(=O)C3CCCN(CCN(C)C)C3)sc12 (centres unmarked) [compound 034]
46 | 600 nM | CN(C)CCN1CCCC(C(=O)Nc2nc3c(C#N)cccc3s2)C1 (centres unmarked) [compound 007]
47 | 9500 nM | CN(C)CCN1CCCC(C(=O)Nc2nc3ccc(Cl)cc3s2)C1 (centres unmarked) [compound 016]
48 | 1500 nM | CN(C)CCN1CCC(C(=O)Nc2nc3c(F)cc(F)cc3s2)CC1 [compound 227]
49 | 500 nM | O=C(Nc1nc2c(Br)cccc2s1)C1CCCN(C2CCNC2)C1 (centres unmarked) [compound 101]
50 | 600 nM | Nc1cc(N2CCCC(C(=O)Nc3nc4c(F)cc(F)cc4s3)C2)ccn1 (centres unmarked) [compound 108]
51 | 110 nM | CCN1CC(N2CCCC(C(=O)Nc3nc4c(Cl)cc(F)cc4s3)C2)C1 (centres unmarked) [compound 135]
52 | 50 nM | C=CCN1CCC(N2CCCC(C(=O)Nc3nc4c(F)cc(F)cc4s3)C2)C1 (centres unmarked) [compound 092]
53 | 280 nM | O=C(Nc1nc2c(F)cc(F)cc2s1)C1CCCN(CCN2CCOCC2)C1 (centres unmarked) [compound 244]
